Assay results: the NIST ThermoML archive (doi:10.1021/je4000857)
Values joined by “and” are separate entries in the source; they are usually repeats but may differ in a detail not shown here. Equal entries are not always repeated. ± gives the expanded uncertainty stated by the source.

Conditions: Liquid

Row | vapor or sublimation pressure (253.3 K) [kPa] | vapor or sublimation pressure (258.11 K) [kPa] | vapor or sublimation pressure (263.23 K) [kPa] | vapor or sublimation pressure (264.05 K) | vapor or sublimation pressure (268.17 K) [kPa] | vapor or sublimation pressure (271.05 K) [kPa] | vapor or sublimation pressure (278.05 K) [kPa] | vapor or sublimation pressure (282.74 K) [kPa] | vapor or sublimation pressure (292.81 K) [kPa] | vapor or sublimation pressure (303.04 K) [kPa] | vapor or sublimation pressure (308.04 K) [kPa] | vapor or sublimation pressure (312.78 K) [kPa] | vapor or sublimation pressure (322.96 K) [kPa] | Compound
1 | 194 ± 3 | 238 ± 3 | 287 ± 3 | 298 ± 4 kPa and 297 ± 4 kPa | 343 ± 4 | 383 ± 4 | 483 ± 5 | 553 ± 6 | 743 ± 7 | 995 ± 10 | 1124 ± 11 | 1256 ± 12 | 1604 ± 16 | FC(F)(F)C(F)(F)C(F)(F)F [octafluoropropane]
2 |  |  |  | 1862 ± 36 kPa |  | 2275 ± 43 | 2700 ± 51 |  |  | 4600 ± 87 |  |  |  | CC [ethane]
